From US20030023104A1, “Therapeutic compound - fatty acid conjugates” (COMMONWEALTH SCIENTIFIC AND INDUSTRIAL RESEARCH ORGANISATION, priority 1995, published 2003)
Several values for one entry are separate records, joined by “and”; a condition that tells them apart may be missing. Identical values can stand only once. Like-named read-outs stand apart in the source and are kept apart here.

Columns and labels:
UVB induced oedema = test: UVB erythema assay (net skin fold thickness); type: in vivo, Skh-1 hairless albino female mice
[1] = test system: reserpine-induced catatonia; test: Anti-reserpine activity (reserpine-induced catatonia); settings: for Response at 15 min.: individual mice 1 and 2
Method: The biological activities of L-DOPA and L-DOPA-GTP2 were tested in an animal model of Parkinsons' disease, a condition caused by low levels of the neurotransmitter dopamine in the brain. Mice were pretreated with reserpine which depletes dopamine and causes animals to become catatonic. The ability of L-DOPA and L-DOPA-GTP2 to reverse this condition was measured.
Mice were injected intraperitoneally (ip) with reserpine (5 mg/kg) and 4 hours later tested for catatonia. A mouse was judged to be catatonic if it was able to stay on a stopper of 4.5 cm diameter for 5 minutes. Catatonic animals were then injected ip with L-DOPA or L-DOPA-GTP2 suspended in Miglyol (200-400 μl/mouse) immediately before use and observed.

B16 melanoma cells = test: Tumour Cytotoxicity Model (B16 melanoma in C57 mice); type: in vivo, C57 black mice; parameters: Mean (standard error) of B16 tumour volume adjusted for the variation in initial volume: scale not given here; settings: for difference in tumour volume from the Vehicle group (95% level): 0.5 mg and 1.0 mg groups; for Mean (standard error) of B16 tumour volume adjusted for the variation in initial volume: statistically modified tumour volume; for B16 Tumour Volume: individual mice
Method: Groups of C57 black mice were given an initiation dose of 2×10^5 B16 melanoma cells as an intradermal injection. The cells were suspended in MEM without serum. The abdomen was clipped and 100 μl of cells + MEM was injected. […] The tumours were measured with a micrometer and photographed just prior to the injection of drug (day 8-10).
The cytotoxic drugs and their fatty acid conjugates were dissolved or suspended in 4:1 soy bean oil:ethyl oleate. A 10 mg/ml or a 20 mg/ml solution of each parent drug or the fatty acid conjugate made to the same molar concentration as the parent drug was then injected into the same region as the tumour at a dose of 0.5 mg or 1 mg. The tumours were then photographed, measured and re-injected every two to three days.

[2] = test system: pain response on heated plate; settings: for mean time response: standard error of each mean ±2.86
Method: The biological activities of Morphine (Mo) and fatty acid conjugates were tested in an antinociceptive assay using mice. Various doses and duration of pain-killing effect of the drugs were examined.
Quackenbush Strain mice (male, 5-week-old, approximately 30 g live weight) were used for the experiments. Animals were given free access to food and water prior to and during the experiment. Animals were divided into groups of 12 and individually weighed. The mean weight for each group was calculated. Mice were then placed on a metal block heated to 50° C. and the time taken for the animals to show signs of discomfort was measured (baseline response: control). Mice were then injected intraperitoneally (ip) with various doses of Morphine or Morphine-fatty acid conjugate. Morphine was made up in a H2O solution and Morphine-fatty acids were made up in an emulsion containing 10% glycerylmonooleate, 21% Miglyol, 6% ethanol, 24% Tween 80 (33%) and 39% H2O. 0.2 ml of appropriate solution was injected ip into each mouse. At different times after injection, responses on the heated plate were measured. In each experiment 3 doses of Morphine and Morphine-fatty acid and 2 time points were tested. A single mouse was used for each treatment and the entire experiment repeated at least 3 times. […] Members of the panel were asked to score mice behaviour according to the following key:
0=agitated mouse, distressed
1=showing mild discomfort
2=not agitated or uncomfortable but still alert
3=placid. docile; not at all worried.
Results from the panel were averaged.

[3] = DOPA moiety 364 mg/kg ip, 20 min
[4] = DOPA moiety 637 mg/kg ip, 20 min

In the case of `CCCCCCCCCCCCCCCC(=O)OCC(COC(=O)CCCCCCCCCCCCCCC)(COC(=O)CCCCCCCCCCCCCCC)NC(=O)CNC(=O)CCC(=O)OCC(=O)C1(O)CCC2C3CCC4=CC(=O)CCC4(C)C3C(O)CC21C` (stereo not drawn) [HC-Suc-GTP3, Hydrocortisone-Suc-Gly-Tris-Tripalmitate], the “Mean Net Skin Fold Thickness” value (UVB induced oedema; 0.5 mg/mouse topical in ethanol, applied Day −5 (5 days prior to UV exposure), 2MED UVB, measured 24 h) is reported as 93.8 ± 9.8 10^−2 mm, the “Mean Net Skin Fold Thickness” value (UVB induced oedema; 0.5 mg/mouse topical, applied Day 0 after UV exposure, 2MED UVB) is reported as 55.8 ± 11.7 10^−2 mm and the “Mean Net Skin Fold Thickness” value (UVB induced oedema; 0.5 mg/mouse topical, applied Day −3 (3 days prior to UV exposure), 2MED UVB) is reported as 86.7 ± 9.4 10^−2 mm. The “activity equivalent to % of the hydrocortisone activity in protecting against UVB induced oedema” value (UVB induced oedema; 0.5 mg/mouse, applied at Day 0, post UVB exposure) was “approximately 50%”, the “Mean Net Skin Fold Thickness” value (UVB induced oedema; 1 mg/mouse (1% w/v) topical, applied Day 0 after UV exposure) was 27.9 ± 7.5 and the “Mean Net Skin Fold Thickness” value (UVB induced oedema; 1 mg/mouse (1% w/v) topical, applied Day −3) was 62.9 ± 4.0. The “Mean Net Skin Fold Thickness” value (UVB induced oedema; 1 mg/mouse (1% w/v) topical, applied Day −5) was 103.8 ± 3.0.
In the case of `N[C@@H](Cc1ccc(O)c(O)c1)C(=O)O` [L-DOPA, 3-(3,4-dihydroxyphenyl)-alanine, reference compound], the “Anti-Reserpine Activity (response)” value [1, 3] is reported as “+”, the “Anti-Reserpine Activity (response)” value [1, 4] is reported as “+” and the “Response at 15 min.” value ([1]; L-DOPA moiety 9.1 mg/kg ip) is reported as “−”. For the same compound, the “Response at 15 min.” value ([1]; L-DOPA moiety 91 mg/kg ip) was “− and +”, the “Response at 15 min.” value ([1]; L-DOPA moiety 364 mg/kg ip) was “+” and the “Response at 15 min.” value ([1]; L-DOPA moiety 637 mg/kg ip) was “+”. The “Response at 15 min.” value ([1]; L-DOPA moiety 910 mg/kg ip) was “+”, the “doses at which all catatonic animals became active” value ([1]; ip, Experiment 1) was at least 364 mg/kg and the “toxic effects observed in treated catatonic mice” value ([1]; mouse, in vivo, ip) was “toxic effects of L-DOPA such as rearing, salivating and jumping”.
In the case of `CCCCCCCCCCCCCCCC(=O)OCC(CO)(COC(=O)CCCCCCCCCCCCCCC)NC(=O)CNC(=O)[C@@H](N)Cc1ccc(O)c(O)c1` [L-DOPA-GTP2, DOPA-Gly-Tris-Dipalmitate], the “time after administration at which signs of recovery showed” value ([1]; 364 mg DOPA/kg ip) is reported as 7 h, the “time after administration at which signs of recovery showed” value ([1]; 637 mg DOPA/kg ip) is reported as 5 h and the “recovery from catatonia at low doses” value ([1]; 9.1 and 91 mg DOPA/kg ip) is reported as “did not recover”. For the same compound, the “Anti-Reserpine Activity (response)” value ([1]; DOPA moiety 9.1 mg/kg ip, 20 min) was “− −”, the “Anti-Reserpine Activity (response)” value ([1]; DOPA moiety 9.1 mg/kg ip, 2 hr) was “− −” and the “Anti-Reserpine Activity (response)” value ([1]; DOPA moiety 9.1 mg/kg ip, 5 hr) was “− −”. For the same compound, the “Anti-Reserpine Activity (response)” value ([1]; DOPA moiety 9.1 mg/kg ip, 6 hr) was “− −”, the “Anti-Reserpine Activity (response)” value ([1]; DOPA moiety 9.1 mg/kg ip, 7 hr) was “− −” and the “Anti-Reserpine Activity (response)” value ([1]; DOPA moiety 9.1 mg/kg ip, 8 hr) was “− −”. The “Anti-Reserpine Activity (response)” value ([1]; DOPA moiety 91 mg/kg ip, 20 min) was “− −”, the “Anti-Reserpine Activity (response)” value ([1]; DOPA moiety 91 mg/kg ip, 2 hr) was “− −” and the “Anti-Reserpine Activity (response)” value ([1]; DOPA moiety 91 mg/kg ip, 5 hr) was “− −”. For the same compound, the “Anti-Reserpine Activity (response)” value ([1]; DOPA moiety 91 mg/kg ip, 6 hr) was “− −”, the “Anti-Reserpine Activity (response)” value ([1]; DOPA moiety 91 mg/kg ip, 7 hr) was “− −” and the “Anti-Reserpine Activity (response)” value ([1]; DOPA moiety 91 mg/kg ip, 8 hr) was “− −”. For the same compound, the “Anti-Reserpine Activity (response)” value [1, 3] was “− −”, the “Anti-Reserpine Activity (response)” value ([1]; DOPA moiety 364 mg/kg ip, 2 hr) was “− −” and the “Anti-Reserpine Activity (response)” value ([1]; DOPA moiety 364 mg/kg ip, 5 hr) was “− −”. For the same compound, the “Anti-Reserpine Activity (response)” value ([1]; DOPA moiety 364 mg/kg ip, 6 hr) was “− −”, the “Anti-Reserpine Activity (response)” value ([1]; DOPA moiety 364 mg/kg ip, 7 hr) was “M —” and the “Anti-Reserpine Activity (response)” value ([1]; DOPA moiety 364 mg/kg ip, 8 hr) was “M M”. The “Anti-Reserpine Activity (response)” value [1, 4] was “−”, the “Anti-Reserpine Activity (response)” value ([1]; DOPA moiety 637 mg/kg ip, 2 hr) was “−” and the “toxic effects observed in treated catatonic mice” value ([1]; ip in Miglyol, active doses) was “did not exhibit the high activity level and toxic effects”.
For `CCCCCCCCCCCCCCCC(=O)OCC(CO)(COC(=O)CCCCCCCCCCCCCCC)NC(=O)CNC(=O)CC[C@H](NC(=O)c1ccc(N(C)Cc2cnc3nc(N)nc(N)c3n2)cc1)C(=O)O` [MTXGTP2, Methotrexate-γ-Gly-Tris-Dipalmitate], the “difference in tumour volume from the Vehicle group (95% level)” value (B16 melanoma cells) was “significant difference”, the “Mean (standard error) of B16 tumour volume adjusted for the variation in initial volume” value (shortened to “Mean (standard error)”) (B16 melanoma cells; 13/11/95, 0.5 mg) was 2.04 (0.565) and the “Mean (standard error)” value (B16 melanoma cells; 13/11/95, 1.0 mg) was 2.30 (0.536). For the same compound, the “Mean (standard error)” value (B16 melanoma cells; 15/11/95, 0.5 mg) was 3.37 (0.884), the “Mean (standard error)” value (B16 melanoma cells; 15/11/95, 1.0 mg) was 3.40 (0.839) and the “Mean (standard error)” value (B16 melanoma cells; 16/11/95, 0.5 mg) was 3.76 (1.06). For the same compound, the “Mean (standard error)” value (B16 melanoma cells; 16/11/95, 1.0 mg) was 4.13 (1.01), the “Mean (standard error)” value (B16 melanoma cells; 17/11/95, 0.5 mg) was 4.03 (1.28) and the “Mean (standard error)” value (B16 melanoma cells; 17/11/95, 1.0 mg) was 4.89 (1.22). For the same compound, the “B16 Tumour Volume” value (B16 melanoma cells; Day 1, drug dose 0.5 mg injected at tumour region) was 0.5 mm^2 (2×) and 2.7 mm^2 and 16.6 mm^2, the “B16 Tumour Volume” value (B16 melanoma cells; Day 1, drug dose 1.0 mg) was 0.1 mm^2 and 8.2 mm^2 (2×) and 10.8 mm^2 and the “B16 Tumour Volume” value (B16 melanoma cells; Day 3, drug dose 0.5 mg) was 0 mm^2 (3×) and 16.6 mm^2. For the same compound, the “B16 Tumour Volume” value (B16 melanoma cells; Day 3, drug dose 1.0 mg) was 0.1 mm^2 and 10.8 mm^2 and 0 mm^2 and 30.4 mm^2, the “B16 Tumour Volume” value (B16 melanoma cells; Day 5, drug dose 0.5 mg) was 0 mm^2 (2×) and 11.8 mm^2 and 64.5 mm^2 and the “B16 Tumour Volume” value (B16 melanoma cells; Day 5, drug dose 1.0 mg) was 0.5 mm^2 and 21.8 mm^2 and 0 mm^2 and 142.5 mm^2. The “B16 Tumour Volume” value (B16 melanoma cells; Day 6, drug dose 0.5 mg) was 0 mm^2 (2×) and 19.8 mm^2 and 77.6 mm^2, the “B16 Tumour Volume” value (B16 melanoma cells; Day 6, drug dose 1.0 mg) was 0.5 mm^2 and 46.8 mm^2 and 0 mm^2 and 261.8 mm^2 and the “B16 Tumour Volume” value (B16 melanoma cells; Day 7, drug dose 0.5 mg) was 0 mm^2 (2×) and 26 mm^2 and 113 mm^2. For the same compound, the “B16 Tumour Volume” value (B16 melanoma cells; Day 7, drug dose 1.0 mg) was 14 mm^2 and 50 mm^2 and 0 mm^2 and 379 mm^2.
`CN(Cc1cnc2nc(N)nc(N)c2n1)c1ccc(C(=O)N[C@@H](CCC(=O)O)C(=O)O)cc1` [Methotrexate, reference compound] was tested, and the “difference in tumour volume from the Vehicle group (95% level)” value (B16 melanoma cells) was “no significant difference”, the “Mean (standard error)” value (B16 melanoma cells; 13/11/95, 0.5 mg) was 3.58 (0.610) and the “Mean (standard error)” value (B16 melanoma cells; 15/11/95, 0.5 mg) was 5.47 (0.955). The “Mean (standard error)” value (B16 melanoma cells; 16/11/95, 0.5 mg) was 6.07 (1.15), the “Mean (standard error)” value (B16 melanoma cells; 17/11/95, 0.5 mg) was 7.24 (1.38) and the “B16 Tumour Volume” value (B16 melanoma cells; Day 1, drug dose 0.5 mg injected at tumour region, listed as MTX) was 0.5 mm^2 and 3.8 mm^2 and 14.1 mm^2 and 26 mm^2. For the same compound, the “B16 Tumour Volume” value (B16 melanoma cells; Day 3, drug dose 0.5 mg, listed as MTX) was 13.6 mm^2 and 4.2 mm^2 and 30.4 mm^2 and 86 mm^2, the “B16 Tumour Volume” value (B16 melanoma cells; Day 5, drug dose 0.5 mg, listed as MTX) was 73.5 mm^2 and 14.1 mm^2 and 86.0 mm^2 and 219.4 mm^2 and the “B16 Tumour Volume” value (B16 melanoma cells; Day 6, drug dose 0.5 mg, listed as MTX) was 125.1 mm^2 and 14.1 mm^2 and 215.0 mm^2 and 266.5 mm^2. The “B16 Tumour Volume” value (B16 melanoma cells; Day 7, drug dose 0.5 mg, listed as MTX) was 190 mm^2 and 21 mm^2 and 234 mm^2 and 515 mm^2.
In the case of `CCCCCCCCCCCCCCCC(=O)OCC(COC(=O)CCCCCCCCCCCCCCC)(COC(=O)CCCCCCCCCCCCCCC)NC(=O)CNC(=O)CCC(=O)Oc1ccc2c3c1O[C@H]1[C@@H](O)C=C[C@H]4[C@@H](C2)N(C)CC[C@@]341` [Mo-Suc-GTP3, Morphine-Suc-Gly-Tris Tripalmitate], the mean time response ([2]; 1 mg Mo/kg ip, 4 hr) is reported as 23.5 s, the mean time response ([2]; 1 mg Mo/kg ip, 6 hr) is reported as 27.8 s and the mean time response ([2]; 10 mg Mo/kg ip, 4 hr) is reported as 29.8 s. For the same compound, the mean time response ([2]; 10 mg Mo/kg ip, 6 hr) was 29.0 s and the “duration of pain-killing effect compared with morphine” value ([2]; ip injection) was “longer lasting effect than morphine”.
